Paper PMC12920294, “Optimizing uPAR-targeting radiopeptides for improved tissue distribution: progress towards radionuclide therapy” (European Journal of Nuclear Medicine and Molecular Imaging, 2025)
Read-outs that look alike come from different tables or passages of the source. Marks after values point to notes of the source that are not given here.

Experiments:
[1] = system: HEK-uPAR xenograft-bearing mice; conditions: mouse, in vivo
Procedure: (§1) HEK-uPAR xenografted mice were injected with the respective radiopeptide (5 MBq, 0.5 nmol/mouse, 100 µL 0.9% NaCl containing 0.05% BSA) and sacrificed at 4 h and 24 h after injection. […] The tissues and organs of interest were collected, weighed and counted for activity using a γ-counter (Wallac Wizard 1480, PerkinElmer). […] The results were presented as the average ± SD of n = 3 mice. The time-activity curves were determined for the uptake of [^177Lu]Lu-DOTA-AE105 and [^177Lu]Lu-uPAR-11 in the blood, HEK-uPAR xenografts, kidneys and liver based on non-decay corrected biodistribution data. For the blood, the initial uptake (t = 0) was set as 50% IA/g assuming a blood volume of 2 mL for CD1 nude mice. The initial uptake value (t = 0) for all other organs and tissues was set as 0% IA/g. […] The area under the curves over 48 h after injection (AUC0h→48 h) was calculated using GraphPad Prism software (version 10.1.1). Statistical analyses were performed by applying a one-way ANOVA test with a Dunnet’s multiple comparison post‐test to compare the data of the new radiopeptides with those of [^177Lu]Lu-DOTA-AE105 and a Tukey’s multiple comparisons post‐test to compare the novel radiopeptides among them. A p-value of < 0.05 was considered a statistically significant difference using GraphPad Prism software (version 10.1.1).

[2] = parameters: method as in Beyer et al. 2025, Mol Pharm 22:3242; conditions: saline, L-ascorbic acid, ref Beyer et al. 2025, Mol Pharm 22:3242, cited from earlier work
[3] = parameters: method as in Beyer et al. 2025, Mol Pharm 22:3242; conditions: 37 °C, ref Beyer et al. 2025, Mol Pharm 22:3242, cited from earlier work
[4] = parameters: method as in Beyer et al. 2025, Mol Pharm 22:3242; conditions: 37 °C, ref Beyer et al. 2025, Mol Pharm 22:3242, cited from earlier work; remark: listed apart in the source
[5] = parameters: method as in Beyer et al. 2025, Mol Pharm 22:3242; conditions: FVB mice, ref Beyer et al. 2025, Mol Pharm 22:3242, cited from earlier work
[6] = biological target: human serum albumin (Homo sapiens, UniProt P02768); conditions: cited from earlier work
Chain of human serum albumin (P02768 25-609): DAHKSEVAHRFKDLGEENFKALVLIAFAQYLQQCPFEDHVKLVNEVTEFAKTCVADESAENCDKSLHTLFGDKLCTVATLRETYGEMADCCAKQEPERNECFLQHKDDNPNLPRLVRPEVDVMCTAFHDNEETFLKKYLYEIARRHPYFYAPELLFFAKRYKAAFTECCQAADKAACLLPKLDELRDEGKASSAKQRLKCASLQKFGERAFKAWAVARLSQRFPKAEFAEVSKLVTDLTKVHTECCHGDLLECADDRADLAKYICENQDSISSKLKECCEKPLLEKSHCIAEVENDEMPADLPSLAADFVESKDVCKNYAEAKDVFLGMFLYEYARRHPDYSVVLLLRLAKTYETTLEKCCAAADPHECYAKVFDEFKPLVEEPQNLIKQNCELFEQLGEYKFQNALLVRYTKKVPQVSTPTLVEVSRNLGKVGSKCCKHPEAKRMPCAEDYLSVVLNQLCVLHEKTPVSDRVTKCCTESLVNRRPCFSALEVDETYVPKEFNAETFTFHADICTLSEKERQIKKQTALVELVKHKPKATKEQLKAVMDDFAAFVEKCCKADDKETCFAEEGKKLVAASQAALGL

[7] = system: HEK-uPAR xenograft-bearing mice; conditions: ref Beyer et al. 2025, Mol Pharm 22:3242, cited from earlier work
[8] = Biodistribution in HEK-uPAR xenografted nude mice; conditions: CD1 nude, mouse, 0.5 nmol/mouse, total radioactivity, 1 h p.i., decay-corrected
Procedure: as §1

[9] = system: HEK-uPAR xenograft-bearing mice; experiment: Biodistribution in HEK-uPAR xenografted nude mice
Procedure: as §1

[10] = non-decay-corrected, ± standard error

- Xgrft-to-kidney ratio [1]: 0.46 ± 0.07
- tissue uptake at 1 h ([8]; HEK-uPAR xenograft, HEK-uPAR xenograft uptake): 1.9 ± 0.7 %ID/g
- tissue uptake at 1 h ([8]; blood, Blood uptake): 0.92 ± 0.4 %ID/g
- tissue uptake at 1 h ([8]; bone, Bone uptake): 0.35 ± 0.11 %ID/g
- tissue uptake at 1 h ([8]; brain, Brain uptake): < 0.03 %ID/g
- tissue uptake at 1 h ([8]; heart, Heart uptake): 0.38 ± 0.16 %ID/g
- tissue uptake at 1 h ([8]; intestines, Intestines uptake): 0.52 ± 0.1 %ID/g
- tissue uptake at 1 h ([8]; kidneys, Kidneys uptake): 4.2 ± 0.8 %ID/g
- tissue uptake at 1 h ([8]; liver, Liver uptake): 0.4 ± 0.14 %ID/g
- tissue uptake at 1 h ([8]; lung, Lung uptake): 1.2 ± 0.4 %ID/g
- tissue uptake at 1 h ([8]; muscle, Muscle uptake): 0.14 ± 0.06 %ID/g
- tissue uptake at 1 h ([8]; pancreas, Pancreas uptake): 0.26 ± 0.08 %ID/g
- tissue uptake at 1 h ([8]; salivary glands, Salivary glands uptake): 0.35 ± 0.13 %ID/g
- tissue uptake at 1 h ([8]; spleen, Spleen uptake): 0.47 ± 0.17 %ID/g
- tissue uptake at 1 h ([8]; stomach, Stomach uptake): 0.39 ± 0.2 %ID/g
- Xgrft-to-blood ratio ([9]; 1 h p.i.): 2.2 ± 0.2
- Xgrft-to-liver ratio ([9]; 1 h p.i.): 4.9 ± 0.1
- AUC0h→48h, HEK-uPAR xenograft [9, 10]: 26 ± 3 % IA/g*h
- AUC0h→48h, blood [9, 10]: 28 ± 1 % IA/g*h
- AUC0h→48h, kidneys [9, 10]: 62 ± 2 % IA/g*h
- AUC0h→48h, liver [9, 10]: 6.9 ± 0.2 % IA/g*h
SMILES: CC(C)C[C@H](NC(=O)[C@H](Cc1ccc(O)cc1)NC(=O)[C@@H](CCCNC(=N)N)NC(=O)[C@@H](CO)NC(=O)[C@H](Cc1ccccc1)NC(=O)[C@H](CC1CCCCC1)NC(=O)[C@H](CC(=O)O)NC(=O)CN1CCN(CC(=O)O)CCN(CC(=O)O)CCN(CC(=O)O)CC1)C(=O)N[C@@H](Cc1c[nH]c2ccccc12)C(=O)N[C@@H](CO)C(N)=O [[^177Lu]Lu-DOTA-AE105, metal not drawn]
- Radiolytic stability, intact radiopeptide ([2]; 1 h): 98 ± 2%
- Radiolytic stability, intact radiopeptide ([2]; 4 h): 98 ± 1%
- Radiolytic stability, intact radiopeptide ([2]; 24 h): 96 ± 2%
- Mouse blood plasma stability, intact radiopeptide ([3]; 1 h): 61 ± 6%
- Mouse blood plasma stability, intact radiopeptide ([3]; 4 h): 13 ± 7%
- Mouse blood plasma stability, intact radiopeptide ([3]; 24 h): 4.6 ± 2.2%
- Human blood plasma stability, intact radiopeptide ([4]; 1 h): 71 ± 3%
- Human blood plasma stability, intact radiopeptide ([4]; 4 h): 13 ± 6%
- Human blood plasma stability, intact radiopeptide ([4]; 24 h): 4.5 ± 1.2%
- Blood plasma, intact radiopeptide ([5]; 1 h p.i.): <1.0%
- Blood plasma, radiometabolite ([5]; 1 h p.i.): >99%
- Kidneys, intact radiopeptide ([5]; 1 h p.i.): <1.0%
- Kidneys, radiometabolite ([5]; 1 h p.i.): >99%
- Liver, intact radiopeptide ([5]; 1 h p.i.): <1.0%
- Liver, radiometabolite ([5]; 1 h p.i.): >99%
- Urine, intact radiopeptide ([5]; 1 h p.i.): 1.4%
- Urine, radiometabolite ([5]; 1 h p.i.): 99%
- Blood plasma, intact radiopeptide ([5]; 4 h p.i.): <1.0%
- Blood plasma, radiometabolite ([5]; 4 h p.i.): >99%
- Kidneys, intact radiopeptide ([5]; 4 h p.i.): <1.0%
- Kidneys, radiometabolite ([5]; 4 h p.i.): >99%
- Liver, intact radiopeptide ([5]; 4 h p.i.): <1.0%
- Liver, radiometabolite ([5]; 4 h p.i.): >99%
- Urine, intact radiopeptide ([5]; 4 h p.i.): 2.3%
- Urine, radiometabolite ([5]; 4 h p.i.): 98%
- Inverse relative albumin-binding affinity [6]: 0.02^a
- Blood uptake ([7]; 4 h p.i.): 0.08 ± 0.01 %IA/g
- Bone uptake ([7]; 4 h p.i.): 0.38 ± 0.03 %IA/g
- Brain uptake ([7]; 4 h p.i.): <0.03 %IA/g
- HEK-uPAR xenograft uptake ([7]; 4 h p.i.): 0.87 ± 0.05 %IA/g
- Heart uptake ([7]; 4 h p.i.): 0.06 ± 0.01 %IA/g
- Intestines uptake ([7]; 4 h p.i.): 0.31 ± 0.03 %IA/g
- Kidneys uptake ([7]; 4 h p.i.): 1.5 ± 0.1 %IA/g
- Liver uptake ([7]; 4 h p.i.): 0.10 ± 0.01 %IA/g
- Lung uptake ([7]; 4 h p.i.): 0.30 ± 0.02 %IA/g
- Muscle uptake ([7]; 4 h p.i.): <0.03 %IA/g
- Pancreas uptake ([7]; 4 h p.i.): 0.06 ± 0.01 %IA/g
- Salivary glands uptake ([7]; 4 h p.i.): 0.09 ± 0.01 %IA/g
- Spleen uptake ([7]; 4 h p.i.): 0.18 ± 0.02 %IA/g
- Stomach uptake ([7]; 4 h p.i.): 0.15 ± 0.03 %IA/g
- Xgrft-to-blood ratio ([7]; 4 h p.i.): 11 ± 1
- Xgrft-to-liver ratio ([7]; 4 h p.i.): 8.6 ± 0.4
- Blood uptake ([7]; 24 h p.i.): <0.03 %IA/g
- Bone uptake ([7]; 24 h p.i.): 0.84 ± 0.10 %IA/g
- Brain uptake ([7]; 24 h p.i.): <0.03 %IA/g
- HEK-uPAR xenograft uptake ([7]; 24 h p.i.): 0.40 ± 0.19 %IA/g
- Heart uptake ([7]; 24 h p.i.): 0.04 ± 0.01 %IA/g
- Intestines uptake ([7]; 24 h p.i.): 0.18 ± 0.02 %IA/g
- Kidneys uptake ([7]; 24 h p.i.): 1.3 ± 0.1 %IA/g
- Liver uptake ([7]; 24 h p.i.): 0.17 ± 0.01 %IA/g
- Lung uptake ([7]; 24 h p.i.): 0.21 ± 0.01 %IA/g
- Muscle uptake ([7]; 24 h p.i.): <0.03 %IA/g
- Pancreas uptake ([7]; 24 h p.i.): 0.06 ± 0.01 %IA/g
- Salivary glands uptake ([7]; 24 h p.i.): 0.09 ± 0.01 %IA/g
- Spleen uptake ([7]; 24 h p.i.): 0.23 ± 0.04 %IA/g
- Stomach uptake ([7]; 24 h p.i.): 0.17 ± 0.03 %IA/g
- Xgrft-to-blood ratio ([7]; 24 h p.i.): 32 ± 13
- Xgrft-to-liver ratio ([7]; 24 h p.i.): 2.4 ± 0.9
